# Reference: paper PMC5320730, “Synthetic curcumin derivative DK1 possessed G2/M arrest and induced apoptosis through accumulation of intracellular ROS in MCF-7 breast cancer cells” (Cancer Cell International, 2017)
# How the values were obtained:
# HepG2 cells = assay: MTT cell viability assay, HepG2; assay type: cell-based; details: Homo sapiens
# Experimental: (§1) Promyelocytic leukemia HL60, hepatoblastoma HepG2, breast cancer MCF-7 and MDA-MB-231 cells were purchased from ATCC (USA) and cultured in RPMI-1640 media (Sigma, USA), supplemented with 10% fetal bovine serum (FBS) (PAA, USA). Normal epithelial MCF-10A cells (ATCC, USA) was maintain in DMEM-F12 (Sigma, USA) supplemented with hydrocortisone (0.5 μg/mL), insulin (10 μg/mL), human epidermal growth factor (hEGF) (20 ng/mL) (Sigma, USA) and 10% FBS (PAA, USA).
# (§2) MTT cell viability assay was used to evaluate the effect of DK1 on viability of HL-60, HepG2, MCF-7, MDA-MB-231 and MCF-10A cells. Briefly, each type of cells (8 × 10^4cells/well) was seeded in 96-well plate in 37 °C CO2 incubator overnight. Then, DK1 was added at concentration ranging between 200 and 3.125 µM by twofold serial dilution. Untreated control was prepared simultaneously. After that, the cells were incubated for 24, 48 and 72 h at 37 °C in 5% CO2 incubator. After the incubation period, all well was added with 20 μL of MTT solution (5 mg/mL) and further incubated for 3 h. Subsequently, 170 μL of supernatant from each well was discarded, 100 μL of dimethyl sulfoxide (DMSO) was added to solubilize the purple formazan crystal and the absorbance was measured at a wavelength of 570 nm by Enzyme-linked immunosorbent assay (ELISA) plate reader (Bio-tek instruments, USA). All cell lines were assayed for three biological replicates each with triplicates. Percentage of cell viability was calculated using the following formula: Cell viability%=OD sample/OD control×100%
# (§3) IC50 value (concentration of DK1 that reduce 50% of cell viability compared to control cell) was determined from the graph of cell viability (%) vs DK1 concentration. Subsequently, selective index, which indicating selectivity of DK1 against cancerous and normal breast cell lines, was calculated by: Selective indexSI=IC50of DK1on normal MCF-10A cell line/IC50on breast cancerous cell lineHL60/HepG2/MCF-7/MDA-MB-231
# MCF-7 cells [1] = assay: Fluorescent microscopy with acridine orange/propidium iodide staining, count of 200 cells; assay type: cell-based, human; details: MCF-7, 25 µM, 72 h, AO/PI, scoring of 200 cells
# Experimental: Prior to harvest the cell, morphology of control and DK1 treated MCF-7 was observed using light microscope. In addition, harvested control and treated MCF-7 cells were resuspended in 100 μL of Phosphate buffer saline (PBS), stained with 10 μg/mL of Acridine orange (AO) and propidium iodide (PI) and viewed under fluorescent microscope (Nikon, Japan).
# MCF-7 cells [2] = assay: MTT cell viability assay, MCF-7; assay type: cell-based, human; details: for IC50: Homo sapiens, MCF7, MCF-7, MTT
# Experimental: as §1, §2, §3
# HL-60 cells = assay: MTT cell viability assay, HL-60; assay type: cell-based; details: Homo sapiens, HL-60, MTT
# Experimental: as §1, §2, §3
# [3] = test system: active caspase 9 in MCF-7 cells; assay: Active caspase 9 staining (CaspGLOW), fluorometry; assay type: cell-based, human; details: MCF-7, 25 µM
# Experimental: (§4) The level of active caspase 9 and cytochrome c of the control and DK1 treated MCF-7 were quantified using CaspGLOW Red Active Caspase-9 staining kit (BioVision, USA) and human cytochrome c platinum ELISA (eBioscience Affymetrix, USA), respectively according to manufacturers’ protocol. Fold change of caspase 9 and cytochrome c was calculated by dividing fluorescence intensity or absorbance of DK1 treated MCF-7 with untreated control MCF-7.
# [4] = test system: cytochrome c in MCF-7 cells; assay: Cytochrome c ELISA; assay type: cell-based, human; details: MCF-7, 25 µM
# Experimental: as §4
# [5] = test system: PLK1, p21 and WEE-1 expression in MCF-7 cells; assay: qRT-PCR of cell cycle related genes; details: MCF-7, 25 µM, qRT-PCR, p < 0.05
# p53 in MCF-7 cells = assay: Western blot analysis of p53; assay type: cell-based, human; details: MCF-7, 25 µM, western blot
# Experimental: Total protein was extracted from harvested cell with Radioimmunoprecipitation assay (RIPA) buffer supplemented with phosphatase inhibitor cocktail (Roche, Canada) and the concentration was quantified by Bradford assay (Sigma, USA). Then, 100 μg of extracted protein was subjected to sodium dodecyl sulfate polyacrylamide gel electrophoresis (SDS-PAGE) (Bio-Rad, USA), transferred to nitrocellulose membrane, block with 0.5% skimmed milk overnight, washed with Tris-buffered saline tween (TBST) buffer and incubated with primary antibodies (anti-CDC2, anti-pCDC2 (Tyr15), anti-p53, and anti-β-actin at a dilution of 1:1000 (Abcam, USA) for 1 h. After that, membranes were washed, incubated with 1:5000 diluted goat anti-rabbit IgG H&L conjugated to […] (Abcam, USA) and developed under chemiluminescence condition (Super Signal West Pico, Pierce, USA) using the ChemiDoc XRS (Bio-Rad, USA). Differential level of evaluated protein in control and DK1 treated MCF-7 was calculated based on the bands intensity analyzed using the Quantity One 1D Analysis software (Bio-rad, USA).
# ROS in MCF-7 cells = assay: Intracellular reactive oxygen species (ROS) detection, DCFH-DA; assay type: cell-based, human; details: MCF-7, 25 µM
# Experimental: Harvested cell was subjected to two times of freeze and thaw in 100 μL of PBS. The lysed cell was then pelleted and the supernatant was subjected to GSH and ROS quantification using Glutathione assay kit (Sigma, USA) and OxiSelect ROS assay kit (Cell Biolabs, USA) according to manufacturers’ protocol.
# For GSH quantification, 10 μL of cell lysate supernatant was added with 150 μL of working solution (1.5 mg/mL DTNB solution, 6 units/mL glutathione reductase and 1× assay buffer), incubated for 5 min and added with 50 μL of NADPH solution (0.16 mg/mL). The absorbance was read at a wavelength of 412 nm by ELISA plate reader (Bio-Tek instrument, USA) for every minute in duration of 5 min. For intracellular ROS quantification, supernatant was added with 10 μM DCFH-DA for 30 min at 37 °C. Then, the fluorescence intensity of DCFH-DA was measured using microplate fluorometer (Thermo Scientific, USA) with a 485/538 nm filter. Fold change of GSH and ROS was calculated by dividing absorbance or fluorescence intensity of DK1 treated MCF-7 with untreated control MCF-7.
compound,measurement,setting,value
"O=C(/C=C(\O)c1ccccc1)c1ccccc1O [DK1, (Z)-3-hydroxy-1-(2-hydroxyphenyl)-3-phenylprop-2-en-1-one]",IC50,HepG2 cells; 24 h,> 150 µM
same,IC50,HepG2 cells; 48 h,138 ± 4.13 µM
same,IC50,HepG2 cells; 72 h,64.2 ± 3.12 µM
same,cells undergone apoptosis,MCF-7 cells [1],~ 12.5%
same,cells undergone late apoptosis/necrosis,MCF-7 cells [1],~ 31%
same,IC50,MCF-7 cells [2]; 24 h,96.8 ± 4.87 µM
same,IC50,MCF-7 cells [2]; 48 h,33.3 ± 3.5 µM
same,IC50,MCF-7 cells [2]; 72 h,25 ± 3.71 µM
same,Selective index of MCF-10A/MCF-7,"MCF-7 cells [2]; IC50 MCF-10A / IC50 MCF-7, 24 h",>2.17
same,Selective index of MCF-10A/MCF-7,"MCF-7 cells [2]; IC50 MCF-10A / IC50 MCF-7, 48 h",3.75
same,Selective index of MCF-10A/MCF-7,"MCF-7 cells [2]; IC50 MCF-10A / IC50 MCF-7, 72 h",4.17
same,SI values,"MCF-7 cells [2]; MCF-7, overall statement",higher than 2
same,IC50,HL-60 cells; 24 h,138 ± 2.16 µM
same,IC50,HL-60 cells; 48 h,124 ± 3.27 µM
same,IC50,HL-60 cells; 72 h,73.4 ± 2.65 µM
same,promotion of active caspase 9 compared to control,[3]; 48 h,~ 1.9 fold
same,promotion of active caspase 9 compared to control,[3]; 72 h,~ 2.4 fold
same,promotion of cytochrome c compared to control,[4]; 48 h,~ 2.1 fold
same,promotion of cytochrome c compared to control,[4]; 72 h,~ 2.8 fold
same,expression of PLK1 compared to control,[5],downregulated
same,expression of WEE-1 compared to control,[5],enhanced
same,expression of p21 compared to control,[5],enhanced
same,promotion of p53 protein compared to control,p53 in MCF-7 cells; 48 h,~ 1.6 fold
same,promotion of p53 protein compared to control,p53 in MCF-7 cells; 72 h,~ 2.0 fold
same,generation of ROS compared to control,ROS in MCF-7 cells; 48 h,~ 1.9 fold
same,generation of ROS compared to control,ROS in MCF-7 cells; 72 h,~ 2.6 fold
